Laboratory results as given in the NIST ThermoML archive (doi:10.1021/acs.jced.5b00348).
Several values for one entry are separate records, joined by “and”; a condition that tells them apart may be missing. Equal values may be shown once.

Details: for vapor or sublimation pressure: Closed cell (Static) method

FC(F)(F)/C=C/Cl [(E)-1-chloro-3,3,3-trifluoroprop-1-ene]
Details | mass density [kg/m3] | speed of sound
335.01 K, 7985.8 kPa, Liquid | 1199.99 | –
335.01 K, 11894 kPa, Liquid | 1213.83 | –
335.01 K, 14112 kPa, Liquid | 1221.09 | –
339.43 K, 353.83 kPa, Gas | – | 140.91 m/s
339.44 K, 145.11 kPa, Gas | – | 148.28 m/s
339.44 K, 267.82 kPa, Gas | – | 144.07 m/s
339.44 K, 267.83 kPa, Gas | – | 144.07 m/s
339.44 K, 267.89 kPa, Gas | – | 144.07 m/s
339.44 K, 353.63 kPa, Gas | – | 140.92 m/s
339.44 K, 353.76 kPa, Gas | – | 140.91 m/s
339.45 K, 144.98 kPa, Gas | – | 148.29 m/s
339.45 K, 145.24 kPa, Gas | – | 148.28 m/s
339.45 K, 267.8 kPa, Gas | – | 144.08 m/s
339.45 K, 267.82 kPa, Gas | – | 144.08 m/s
339.47 K, 199.9 kPa, Gas | – | 146.45 m/s
339.47 K, 268.41 kPa, Gas | – | 144.06 m/s
339.47 K, 321.82 kPa, Gas | – | 142.12 m/s
339.47 K, 447.53 kPa, Gas | – | 137.13 m/s
339.48 K, 199.88 kPa, Gas | – | 146.45 m/s
339.48 K, 268.39 kPa, Gas | – | 144.06 m/s
339.48 K, 268.43 kPa, Gas | – | 144.06 m/s
339.48 K, 322.03 kPa, Gas | – | 142.12 m/s
339.48 K, 374.34 kPa, Gas | – | 140.12 m/s
339.48 K, 447.52 kPa, Gas | – | 137.13 m/s
339.48 K, 447.57 kPa, Gas | – | 137.13 m/s
339.49 K, 85.51 kPa, Gas | – | 150.21 m/s
339.49 K, 85.52 kPa, Gas | – | 150.22 m/s
339.49 K, 322.01 kPa, Gas | – | 142.12 m/s
340 K, 3674.5 kPa, Liquid | 1169.48 | –
345.01 K, 6402.5 kPa, Liquid | 1168.7 | –
349.98 K, 366.9 kPa, Gas | 17.985 | –
350 K, 9119.8 kPa, Liquid | 1167.95 | –
355.01 K, 990.8 kPa, Liquid | 1111.28 | –
355.01 K, 2028.5 kPa, Liquid | 1117.99 | –
355.01 K, 3980.1 kPa, Liquid | 1129.59 | –
355.01 K, 6026.4 kPa, Liquid | 1140.59 | –
355.01 K, 8135 kPa, Liquid | 1150.94 | –
355.01 K, 9972.9 kPa, Liquid | 1159.29 | –
355.01 K, 11833 kPa, Liquid | 1167.22 | –
359.44 K, 307.1 kPa, Gas | – | 148.62 m/s
359.44 K, 400.17 kPa, Gas | – | 145.8 m/s
359.44 K, 400.23 kPa, Gas | – | 145.8 m/s
359.44 K, 500.35 kPa, Gas | – | 142.58 m/s
359.44 K, 596.92 kPa, Gas | – | 139.26 m/s
359.45 K, 307.02 kPa, Gas | – | 148.63 m/s
359.45 K, 307.4 kPa, Gas | – | 148.62 m/s
359.45 K, 400.08 kPa, Gas | – | 145.81 m/s
359.45 K, 500.35 kPa, Gas | – | 142.58 m/s and 142.58 m/s
359.45 K, 596.94 kPa, Gas | – | 139.26 m/s
359.45 K, 596.95 kPa, Gas | – | 139.26 m/s
359.98 K, 499.3 kPa, Gas | 24.386 | –
360 K, 387.4 kPa, Gas | 18.379 | –
360 K, 916.6 kPa, Fluid (supercritical or subcritical phases) | 1094.63 | –
360 K, 3249 kPa, Liquid | 1110.57 | –
364 K, 2629 kPa, Fluid (supercritical or subcritical phases) | 1094.08 | –
365.01 K, 5510.3 kPa, Liquid | 1109.87 | –
368 K, 1297.9 kPa, Fluid (supercritical or subcritical phases) | 1070.52 | –
368 K, 4345.4 kPa, Fluid (supercritical or subcritical phases) | 1093.56 | –
370 K, 523.6 kPa, Gas | 24.719 | –
370.01 K, 524 kPa, Gas | 24.736 | –
370.01 K, 7766.7 kPa, Liquid | 1109.2 | –
370.02 K, 407.6 kPa, Gas | 18.73 | –
372 K, 2880.6 kPa, Fluid (supercritical or subcritical phases) | 1070 | –
375.01 K, 2017.2 kPa, Liquid | 1052.12 | –
375.01 K, 4033.7 kPa, Liquid | 1069.29 | –
375.01 K, 5918 kPa, Liquid | 1083.16 | –
375.01 K, 7957.7 kPa, Liquid | 1096.46 | –
375.01 K, 10021 kPa, Liquid | 1108.53 | –
376 K, 1522.5 kPa, Fluid (supercritical or subcritical phases) | 1043.77 | –
376 K, 4464.2 kPa, Fluid (supercritical or subcritical phases) | 1069.49 | –
379.77 K, 81.05 kPa, Gas | – | 159.47 m/s and 159.47 m/s
379.77 K, 81.06 kPa, Gas | – | 159.48 m/s
379.77 K, 201.41 kPa, Gas | – | 156.72 m/s

Liquid
Details | vapor or sublimation pressure [kPa]
340.01 K | 470.7
350.02 K | 608.7
360.02 K | 775
370.03 K | 973.2
